According to the CheMixHub viscosity set:

Test: xn = mol fraction of the nth substance listed

NC=O + CC(C)(C)O
308 K, 101 kPa
Conditions | viscosity [mPa·s]
x1 = 0.1112 | 2.784
x1 = 0.2296 | 3.129
x1 = 0.3735 | 3.402
x1 = 0.5054 | 3.512
x1 = 0.6138 | 3.505
x1 = 0.7045 | 3.383
x1 = 0.7815 | 3.224
x1 = 0.8476 | 3.024
x1 = 0.9051 | 2.817

CN1CCC[C@H]1c1cccnc1 + CC(C)=O
viscosity [mPa·s], 101 kPa
Conditions | x1 = 0.1173 | x1 = 0.2498 | x1 = 0.378 | x1 = 0.5005 | x1 = 0.6228 | x1 = 0.7485 | x1 = 0.8439
298.15 K | 0.4615 | 0.6975 | 0.9326 | 1.28 | 1.695 | 2.274 | 2.856
308.15 K | 0.4184 | 0.6054 | 0.7994 | 1.075 | 1.397 | 1.818 | 2.248
323.15 K | 0.3526 | 0.4988 | 0.6476 | 0.8411 | 1.065 | 1.364 | 1.619

OCCCO + CC(C)=O
viscosity [mPa·s], 100 kPa
Conditions | x2 = 0.1008 | x2 = 0.1914 | x2 = 0.3021 | x2 = 0.4009 | x2 = 0.51 | x2 = 0.6004 | x2 = 0.7 | x2 = 0.7983 | x2 = 0.9002
293.15 K | 29.2 | 17.28 | 9.162 | 5.229 | 2.942 | 1.764 | 1.321 | 1.18 | 1.04
298.15 K | 23.55 | 14.22 | 7.721 | 4.496 | 2.567 | 1.583 | 1.14 | 1.038 | 0.9174
303.15 K | 19.21 | 11.82 | 6.554 | 3.894 | 2.257 | 1.428 | 1.031 | 0.9173 | 0.8122
308.15 K | 15.86 | 9.922 | 5.609 | 3.395 | 1.997 | 1.293 | 0.9331 | 0.8138 | 0.722
313.15 K | 13.22 | 8.416 | 4.85 | 2.979 | 1.78 | 1.175 | 0.8442 | 0.7248 | 0.6442
318.15 K | 11.13 | 7.191 | 4.215 | 2.633 | 1.597 | 1.07 | 0.7632 | 0.6479 | 0.5768
323.15 K | 9.46 | 6.198 | 3.679 | 2.343 | 1.433 | 0.9737 | 0.6946 | 0.5811 | 0.5183

CCOC(=O)CCC(=O)OCC + CC(C)CCO
viscosity [mPa·s], 100 kPa
Conditions | 293.15 K | 298.15 K | 313.15 K
x1 = 0.5 | – | 2.025 | –
x1 = 0.7999 | 2.455 | – | 1.635

CCOC(=O)CCC(=O)OCC + CC(C)CO
Conditions | viscosity [mPa·s]
303.15 K, 100 kPa, x1 = 0.0999 | 2.135

NC=O + CC(C)CO
308 K, 101 kPa
Conditions | viscosity [mPa·s]
x1 = 0.1092 | 2.344
x1 = 0.2053 | 2.444
x1 = 0.3677 | 2.574
x1 = 0.4992 | 2.682
x1 = 0.6079 | 2.757
x1 = 0.6993 | 2.788
x1 = 0.7772 | 2.782
x1 = 0.844 | 2.744
x1 = 0.9029 | 2.701

CCN(CC)CC(=O)Nc1c(C)cccc1C + CC(C)[C@@H]1CC[C@@H](C)C[C@H]1O
100 kPa, x2 = 0.667
Conditions | viscosity [mPa·s]
293.15 K | 69.38
298.15 K | 45.91
303.15 K | 31.73
308.15 K | 22.78
313.15 K | 16.87
318.15 K | 12.85
323.15 K | 10.02

CN1CCC[C@H]1c1cccnc1 + CC(O)CO
100 kPa
Conditions | viscosity [mPa·s]
293.15 K, x1 = 0.1 | 59.35
293.15 K, x1 = 0.3 | 44.85
298.15 K, x1 = 0.6005 | 14.25
303.15 K, x1 = 0.2009 | 28.85
308.15 K, x1 = 0.6005 | 8.935
313.15 K, x1 = 0.7 | 5.605
313.15 K, x1 = 0.7983 | 4.425
318.15 K, x1 = 0.3 | 11.45

NC=O + CC(O)CO
viscosity [mPa·s], 101 kPa
Conditions | 293.15 K | 298.15 K | 303.15 K | 308.15 K | 313.15 K | 318.15 K
x1 = 0.0567 | 41.37 | 33.51 | 27.96 | 23 | 18.07 | 14.26
x1 = 0.1191 | 36.96 | 29.71 | 24.4 | 19.81 | 15.28 | 11.93
x1 = 0.1736 | – | 29.68 | – | – | – | –
x1 = 0.1881 | 33.2 | 26.49 | 21.59 | 17.16 | 12.95 | 9.801
x1 = 0.2649 | 29.41 | 23.3 | 18.92 | 14.86 | 10.98 | 8.107
x1 = 0.3159 | – | 22.75 | – | – | – | –
x1 = 0.3409 | 25.85 | 20.41 | 16.5 | 12.9 | 9.425 | 6.875
x1 = 0.4166 | – | 18.75 | – | – | – | –
x1 = 0.4478 | 21.21 | 16.73 | 13.52 | 10.58 | 7.704 | 5.602
x1 = 0.5518 | – | 14.59 | – | – | – | –
x1 = 0.5578 | 16.8 | 13.31 | 10.81 | 8.506 | 6.3 | 4.653
x1 = 0.6017 | – | 13.69 | – | – | – | –
x1 = 0.654 | – | 12.31 | – | – | – | –
x1 = 0.6838 | 12.2 | 9.902 | 8.159 | 6.542 | 5.072 | 3.959
x1 = 0.7347 | – | 10.26 | – | – | – | –
x1 = 0.8117 | – | 8.254 | – | – | – | –
x1 = 0.8295 | 7.586 | 6.35 | 5.433 | 4.647 | 3.789 | 3.144
x1 = 0.8808 | – | 6.511 | – | – | – | –
x1 = 0.8818 | 6.101 | 5.206 | 4.59 | 4.003 | 3.386 | 2.902
x1 = 0.9392 | 4.756 | 4.189 | 3.805 | 3.401 | 2.96 | 2.601
x1 = 0.9434 | – | 4.916 | – | – | – | –

OCCCO + CC(O)CO
viscosity [mPa·s], 101 kPa
Conditions | x2 = 0.1014 | x2 = 0.2101 | x2 = 0.2999 | x2 = 0.4071 | x2 = 0.5013 | x2 = 0.5925 | x2 = 0.7113 | x2 = 0.8005 | x2 = 0.9208
298.15 K | 42.34 | 42.71 | – | – | 43.62 | 43.82 | 43.95 | 43.88 | –
303.15 K | – | 34.03 | 34.2 | 34.39 | 34.49 | 34.55 | 34.49 | 34.36 | 34.11
308.15 K | 27.18 | 27.11 | 27.05 | – | – | – | 26.36 | 26.06 | 25.59

CN1CCC[C@H]1c1cccnc1 + CCC(C)=O
viscosity [mPa·s], 101 kPa
Conditions | x1 = 0.1253 | x1 = 0.2463 | x1 = 0.3642 | x1 = 0.4878 | x1 = 0.6133 | x1 = 0.7374 | x1 = 0.883
298.15 K | 0.5454 | 0.7187 | 0.9572 | 1.246 | 1.646 | 2.2 | 3.069
323.15 K | 0.4075 | 0.5104 | 0.6647 | 0.8283 | 1.041 | 1.316 | 1.767

OCCCO + CCC(C)=O
Conditions | viscosity [mPa·s]
318.15 K, 100 kPa, x1 = 0.7989 | 6.885
